Test results as given in patent US4816562A, “Novel substrate for plasma kallikrein and a method for measuring biological components using the same” (Nitto Boseki Co., Ltd., priority 1985, dated 1989).
Where “and” joins values, the source holds several entries; their conditions need not be identical. Equal entries are not always repeated. Where a SMILES comes first, the peptide text is derived from it. [ ]: non-standard residue; d: D form. The star is where a group is joined. pNA = O=[N+]([O-])c1ccc(N*)cc1

Assays:
Plasma kallikrein (HPK) = target: T1, Plasma kallikrein (HPK) (Homo sapiens, UniProt P03952); assay: Substrate specificity: reaction of chromogenic substrates with plasma kallikrein, absorbance read-out; format: biochemical; conditions: for Absorbance (O.D.) HPK: S0 = 2.0 mM, 37° C., 5 minutes, pH 9.0; for Relative reactivity with HPK: PS-2203N taken as 100, initial substrate concentration S0 = 2 mM
T1 construct: purchased AB Kabi Diagnostica Lot No. 3740152 (catalogue number not given)
T1 sequence (P03952 391-638 limits assumed): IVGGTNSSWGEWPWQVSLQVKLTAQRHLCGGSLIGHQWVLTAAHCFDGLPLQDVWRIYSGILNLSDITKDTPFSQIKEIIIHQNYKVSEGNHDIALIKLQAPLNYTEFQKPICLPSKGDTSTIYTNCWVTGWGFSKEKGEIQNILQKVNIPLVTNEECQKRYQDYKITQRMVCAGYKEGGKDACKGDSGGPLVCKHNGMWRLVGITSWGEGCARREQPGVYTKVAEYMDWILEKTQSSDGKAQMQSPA
T1 sequence (P03952 20-390 partner limits assumed): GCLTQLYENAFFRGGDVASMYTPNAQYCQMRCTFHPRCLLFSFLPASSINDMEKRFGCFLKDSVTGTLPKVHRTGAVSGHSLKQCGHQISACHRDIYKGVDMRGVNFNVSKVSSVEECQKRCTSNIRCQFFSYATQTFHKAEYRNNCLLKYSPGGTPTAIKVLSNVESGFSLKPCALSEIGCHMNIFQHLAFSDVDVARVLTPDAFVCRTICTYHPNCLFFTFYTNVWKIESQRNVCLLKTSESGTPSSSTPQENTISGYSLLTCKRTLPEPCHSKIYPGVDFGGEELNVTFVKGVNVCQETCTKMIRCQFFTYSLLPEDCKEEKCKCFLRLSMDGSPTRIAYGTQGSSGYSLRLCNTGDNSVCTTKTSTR
Procedure: (§1) The specificities of the novel substrates synthesized above were examined by reacting them with various enzymes.
(§2) (1) Substrate solution: 2 mmoles/liter H2 O
(§3) (2) Buffer solution: Concentrations of Tris, NaCl and CaCl2 and pH value of reaction for every enzyme were as follows: […]
(§4) Into a silicone-treated test tube made of hard glass or a plastic were introduced 0.3 ml of a buffer solution and 0.1 ml of an enzyme reagent. After preheating them for 5 minutes in a thermostated bath kept at 37° C., 0.1 ml of substrate solution was added and an enzyme reaction was carried out at 37° C. for 5 minutes. When an exact five minutes had passed, 2.0 ml of the reaction stopper or the reaction-stopping color-forming reagent was added to stop the enzyme reaction, and subsequently the reaction mixture was allowed to stand at 37° C. for 10 minutes. Then, absorbance was measured at 405 nm or 700 nm.

[1] = target: T2, Glandular kallikrein (HGK) (Homo sapiens, UniProt P06870); assay: Substrate specificity: reaction of chromogenic substrates with glandular kallikrein, absorbance read-out; format: biochemical, Human urine; conditions: for Absorbance (O.D.) HGK: S0 = 2.0 mM, 37° C., 5 minutes, pH 9.0; for Relative reactivity with HGK: PS-2203N taken as 100, initial substrate concentration S0 = 2 mM; for Reactivity with glandular kallikrein: relative to Z-D-Orn-Phe-Arg-PNA (PS-2203N) as 100
T2 construct: purchased Green Cross Lot No. 1003SM (catalogue number not given); host or cells: human urine
T2 sequence (P06870 25-262): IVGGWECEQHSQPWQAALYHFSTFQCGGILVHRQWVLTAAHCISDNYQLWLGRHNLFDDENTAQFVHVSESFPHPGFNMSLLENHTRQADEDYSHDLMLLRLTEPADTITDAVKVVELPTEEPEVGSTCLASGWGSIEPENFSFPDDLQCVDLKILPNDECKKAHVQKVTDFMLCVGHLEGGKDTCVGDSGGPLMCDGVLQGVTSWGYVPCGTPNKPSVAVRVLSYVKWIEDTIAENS
Procedure: as §1, §2, §3, §4

Thrombin (TH) = target: T3, Thrombin (TH) (Bos taurus, UniProt P00735); assay: Substrate specificity: reaction of chromogenic substrates with thrombin, absorbance read-out; format: biochemical, Bovine; conditions: for Absorbance (O.D.) TH: S0 = 2.0 mM, 37° C., 5 minutes, pH 8.5; for Relative reactivity with TH: PS-2203N taken as 100, initial substrate concentration S0 = 2 mM; for Reactivity with thrombin: relative to Z-D-Orn-Phe-Arg-PNA (PS-2203N) as 100
T3 construct: purchased Mochida Pharmaceutical Lot No. 65146 (catalogue number not given)
Procedure: as §1, §2, §3, §4

Plasmin (PL) = target: T4, Plasmin (PL) (Homo sapiens, UniProt P00747); assay: Substrate specificity: reaction of chromogenic substrates with plasmin, absorbance read-out; format: biochemical; conditions: for Absorbance (O.D.) PL: S0 = 2.0 mM, 37° C., 5 minutes, pH 7.8; for Relative reactivity with PL: PS-2203N taken as 100, initial substrate concentration S0 = 2 mM; for Reactivity with plasmin: relative to Z-D-Orn-Phe-Arg-PNA (PS-2203N) as 100
T4 construct: purchased Green Cross Lot No. PL-35 (catalogue number not given)
T4 sequence (P00747 581-810 limits assumed): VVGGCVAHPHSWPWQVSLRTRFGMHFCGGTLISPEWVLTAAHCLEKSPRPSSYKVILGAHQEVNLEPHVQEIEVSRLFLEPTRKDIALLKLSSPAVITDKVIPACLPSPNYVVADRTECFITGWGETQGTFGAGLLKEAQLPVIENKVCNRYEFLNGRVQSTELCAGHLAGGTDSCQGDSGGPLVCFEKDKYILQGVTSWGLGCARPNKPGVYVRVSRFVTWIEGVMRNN
T4 sequence (P00747 97-580 partner limits assumed): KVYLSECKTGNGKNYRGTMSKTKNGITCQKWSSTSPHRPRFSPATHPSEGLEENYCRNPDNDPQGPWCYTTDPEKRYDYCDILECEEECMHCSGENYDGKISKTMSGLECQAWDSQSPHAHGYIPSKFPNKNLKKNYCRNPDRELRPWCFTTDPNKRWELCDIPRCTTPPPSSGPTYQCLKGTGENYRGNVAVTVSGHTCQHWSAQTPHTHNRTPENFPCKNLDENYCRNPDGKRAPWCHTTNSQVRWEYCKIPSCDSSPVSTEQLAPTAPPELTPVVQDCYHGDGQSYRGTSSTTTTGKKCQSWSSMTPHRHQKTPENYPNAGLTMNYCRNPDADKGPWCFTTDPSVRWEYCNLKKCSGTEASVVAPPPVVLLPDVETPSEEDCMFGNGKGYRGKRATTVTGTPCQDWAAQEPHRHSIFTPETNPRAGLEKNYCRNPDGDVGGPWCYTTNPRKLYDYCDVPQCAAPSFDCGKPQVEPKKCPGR
Procedure: as §1, §2, §3, §4

Xa factor (FXa) = target: T5, Xa factor (FXa) (Bos taurus, UniProt P00743); assay: Substrate specificity: reaction of chromogenic substrates with Xa factor, absorbance read-out; format: biochemical, Bovine; conditions: for Absorbance (O.D.) FXa: S0 = 2.0 mM, 37° C., 5 minutes, pH 8.3; for Relative reactivity with FXa: PS-2203N taken as 100, initial substrate concentration S0 = 2 mM; for Reactivity with Xa factor: relative to Z-D-Orn-Phe-Arg-PNA (PS-2203N) as 100
T5 construct: purchased Sigma Lot No. 73F-9450 (catalogue number not given)
T5 sequence (P00743 234-492 limits assumed): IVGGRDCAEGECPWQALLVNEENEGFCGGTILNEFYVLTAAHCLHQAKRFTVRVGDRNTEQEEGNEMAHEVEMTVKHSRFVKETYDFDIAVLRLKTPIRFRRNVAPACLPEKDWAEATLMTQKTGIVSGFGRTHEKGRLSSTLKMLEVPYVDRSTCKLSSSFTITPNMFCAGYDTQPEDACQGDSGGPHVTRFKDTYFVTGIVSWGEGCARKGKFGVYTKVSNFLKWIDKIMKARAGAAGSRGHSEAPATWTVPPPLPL
T5 sequence (P00743 41-180 partner limits assumed): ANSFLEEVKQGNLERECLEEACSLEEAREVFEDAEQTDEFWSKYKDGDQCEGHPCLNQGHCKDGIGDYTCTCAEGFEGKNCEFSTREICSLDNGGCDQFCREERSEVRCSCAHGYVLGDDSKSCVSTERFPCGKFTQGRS
Procedure: as §1, §2, §3, §4

Urokinase (UK) = target: T6, Urokinase (UK) (Homo sapiens, UniProt P00749); assay: Substrate specificity: reaction of chromogenic substrates with urokinase, absorbance read-out; format: biochemical; conditions: for Absorbance (O.D.) UK: S0 = 2.0 mM, 37° C., 5 minutes, pH 8.2; for Relative reactivity with UK: PS-2203N taken as 100, initial substrate concentration S0 = 2 mM
T6 construct: purchased Mochida Pharmaceutical Lot No. 2A-139 (catalogue number not given)
Procedure: as §1, §2, §3, §4

[2] = 700 nm (CHA substrates, pentaamine ferroate)

Which “Absorbance (O.D.) HPK” value (Plasma kallikrein (HPK); [2]) does the source give for “SBz--D-Lys--Phe--Arg--CHA.2HCl [PS-2206]” here?
The value was 0.234 O.D.

And the “Absorbance (O.D.) HGK” value [1, 2]?
Its value is 0.010 O.D.

And the “Absorbance (O.D.) TH” value (Thrombin (TH); [2])?
Its value is 0.007 O.D.

What about the “Absorbance (O.D.) PL” value (Plasmin (PL); [2]) of the same molecule?
The value was 0.094 O.D.

What about the “Absorbance (O.D.) FXa” value (Xa factor (FXa); [2]) of the same molecule?
Its value is 0.016 O.D.

What about the “Absorbance (O.D.) UK” value (Urokinase (UK); [2]) of the same molecule?
The value was 0.0 O.D.

Which “Absorbance (O.D.) HPK” value (Plasma kallikrein (HPK); [2]) does the source give for Z--D-Lys--Phe--Arg--CHA.2HCl [PS-2200] here?
The value was 0.316 O.D.

And the “Absorbance (O.D.) HGK” value [1, 2]?
The value was 0.010 O.D.

What about the “Absorbance (O.D.) TH” value (Thrombin (TH); [2]) of the same molecule?
The value was 0.009 O.D.

And the “Absorbance (O.D.) PL” value (Plasmin (PL); [2])?
The value was 0.094 O.D.

And the “Absorbance (O.D.) FXa” value (Xa factor (FXa); [2])?
The value was 0.046 O.D.

And the “Absorbance (O.D.) UK” value (Urokinase (UK); [2])?
The value was 0.002 O.D.

Which “Absorbance (O.D.) HPK” value (Plasma kallikrein (HPK); [2]) does the source give for “i-BOC--D-Lys--Phe--Arg--CHA.2HCl [PS-2202]” here?
The value was 0.245 O.D.

What about the “Absorbance (O.D.) HGK” value [1, 2] of the same molecule?
The value was 0.006 O.D.

And the “Absorbance (O.D.) TH” value (Thrombin (TH); [2])?
The value was 0.005 O.D.

What about the “Absorbance (O.D.) PL” value (Plasmin (PL); [2]) of the same molecule?
The value was 0.128 O.D.

And the “Absorbance (O.D.) FXa” value (Xa factor (FXa); [2])?
Its value is 0.040 O.D.

What about the “Absorbance (O.D.) UK” value (Urokinase (UK); [2]) of the same molecule?
The value was 0.0 O.D.

What does the source list for Z-D-Orn-Phe-Arg-CHA [PS-2203]?
Absorbance (O.D.) HPK (Plasma kallikrein (HPK); [2]): 0.331 O.D.; Relative reactivity with HPK (Plasma kallikrein (HPK)): 59; Absorbance (O.D.) HGK [1, 2]: 0.005 O.D.; Relative reactivity with HGK [1]: 15; Reactivity with glandular kallikrein [1]: 15%; Absorbance (O.D.) TH (Thrombin (TH); [2]): 0.007 O.D.; Relative reactivity with TH (Thrombin (TH)): 2; Reactivity with thrombin (Thrombin (TH)): 2%; Absorbance (O.D.) PL (Plasmin (PL); [2]): 0.079 O.D.; Relative reactivity with PL (Plasmin (PL)): 14; Reactivity with plasmin (Plasmin (PL)): 14%; Absorbance (O.D.) FXa (Xa factor (FXa); [2]): 0.022 O.D.; Relative reactivity with FXa (Xa factor (FXa)): 4; Reactivity with Xa factor (Xa factor (FXa)): 4%; Absorbance (O.D.) UK (Urokinase (UK); [2]): 0.0 O.D.; Relative reactivity with UK (Urokinase (UK)): 0

Which “Absorbance (O.D.) HPK” value (Plasma kallikrein (HPK); 405 nm (PNA substrates)) does the source give for “Z-D-Orn-Phe-Arg-PNA [PS-2203N, reference compound]” here?
The value was 0.250 O.D. and 0.249 O.D.

What about the “Relative reactivity with HPK” value (Plasma kallikrein (HPK)) of the same molecule?
Its value is 100.

What about the “Absorbance (O.D.) HGK” value ([1]; 405 nm (PNA substrates)) of the same molecule?
The value was 0.013 O.D.

And the “Relative reactivity with HGK” value [1]?
Its value is 100.

And the “Absorbance (O.D.) TH” value (Thrombin (TH); 405 nm (PNA substrates))?
Its value is 0.056 O.D.

And the “Relative reactivity with TH” value (Thrombin (TH))?
The value was 100.

What about the “Absorbance (O.D.) PL” value (Plasmin (PL); 405 nm (PNA substrates)) of the same molecule?
The value was 0.250 O.D.

And the “Relative reactivity with PL” value (Plasmin (PL))?
The value was 100.

What about the “Absorbance (O.D.) FXa” value (Xa factor (FXa); 405 nm (PNA substrates)) of the same molecule?
The value was 0.230 O.D.

What about the “Relative reactivity with FXa” value (Xa factor (FXa)) of the same molecule?
The value was 100.

What about the “Absorbance (O.D.) UK” value (Urokinase (UK); 405 nm (PNA substrates)) of the same molecule?
The value was 0.021 O.D.

What about the “Relative reactivity with UK” value (Urokinase (UK)) of the same molecule?
The value was 100.

For “MOC--D-Lys--Phe--Arg--CHA.2HCl [PS-2204]”, which “Absorbance (O.D.) HPK” value (Plasma kallikrein (HPK); [2]) is on record?
The value was 0.301 O.D.

And the “Absorbance (O.D.) HGK” value [1, 2]?
The value was 0.016 O.D.

And the “Absorbance (O.D.) TH” value (Thrombin (TH); [2])?
The value was 0.010 O.D.

And the “Absorbance (O.D.) PL” value (Plasmin (PL); [2])?
The value was 0.107 O.D.

What about the “Absorbance (O.D.) FXa” value (Xa factor (FXa); [2]) of the same molecule?
Its value is 0.046 O.D.

And the “Absorbance (O.D.) UK” value (Urokinase (UK); [2])?
The value was 0.0 O.D.

What does the source list for Tos-D-Lys-Phe-Arg-CHA.2HCl [PS-2205]?
Absorbance (O.D.) HPK (Plasma kallikrein (HPK); [2]): 0.255 O.D.; Absorbance (O.D.) HGK [1, 2]: 0.014 O.D.; Absorbance (O.D.) TH (Thrombin (TH); [2]): 0.015 O.D.; Absorbance (O.D.) PL (Plasmin (PL); [2]): 0.158 O.D.; Absorbance (O.D.) FXa (Xa factor (FXa); [2]): 0.010 O.D.; Absorbance (O.D.) UK (Urokinase (UK); [2]): 0.0 O.D.

For `N=C(N)NCCC[C@H](NC(=O)[C@H](Cc1ccccc1)NC(=O)[C@H]1CCCN1)C(=O)Nc1ccc([N+](=O)[O-])cc1` [S-2302, H-D-Pro-Phe-Arg-PNA, reference compound] (H-[dP]-Phe-Arg-pNA), which “Absorbance (O.D.) HPK” value (Plasma kallikrein (HPK); 405 nm (PNA substrates)) is on record?
The value was 0.325 O.D.

And the “Relative reactivity with HPK” value (Plasma kallikrein (HPK))?
Its value is 131.

And the “Absorbance (O.D.) HGK” value ([1]; 405 nm (PNA substrates))?
Its value is 0.021 O.D.

And the “Relative reactivity with HGK” value [1]?
The value was 169.

And the “Reactivity with glandular kallikrein” value [1]?
The value was 169%.

And the “Absorbance (O.D.) TH” value (Thrombin (TH); 405 nm (PNA substrates))?
The value was 0.152 O.D.

What about the “Relative reactivity with TH” value (Thrombin (TH)) of the same molecule?
The value was 269.

And the Reactivity with thrombin (Thrombin (TH))?
The Reactivity with thrombin was 269%.

What about the “Absorbance (O.D.) PL” value (Plasmin (PL); 405 nm (PNA substrates)) of the same molecule?
The value was 0.121 O.D.

And the “Relative reactivity with PL” value (Plasmin (PL))?
The value was 48.

And the Reactivity with plasmin (Plasmin (PL))?
The Reactivity with plasmin was 48%.

What about the “Absorbance (O.D.) FXa” value (Xa factor (FXa); 405 nm (PNA substrates)) of the same molecule?
Its value is 0.389 O.D.

And the “Relative reactivity with FXa” value (Xa factor (FXa))?
Its value is 169.

And the “Reactivity with Xa factor” value (Xa factor (FXa))?
The value was 169%.

What about the “Absorbance (O.D.) UK” value (Urokinase (UK); 405 nm (PNA substrates)) of the same molecule?
The value was 0.011 O.D.

And the “Relative reactivity with UK” value (Urokinase (UK))?
The value was 50.

What about the Reactivity with urokinase (Urokinase (UK); relative to Z-D-Orn-Phe-Arg-PNA (PS-2203N) as 100) of the same molecule?
Its Reactivity with urokinase is 50%.
